Experimental findings from ChEMBL document CHEMBL3832068, “DailyMed|setid=9ddd37f9-299e-4c98-91ed-deeb72c63b00 | GRIS-PEG - griseofulvin tablet, film coated|State of Florida DOH Central Pharmacy” are described below.

One data set relates to Homo sapiens. Kind of data set: (§1) Mean pharmacokinetic parameters for Griseofulvin following single dose administration of unaltered 250 mg ultramicrocrystalline Griseofulvin tablets, with or without applesauce, to 24 healthy volunteers. Particulars: in vivo, po, dietary status Fasting, dosed compound id 34, dosed compound name GRISEOFULVIN, gender male and female, regimen Single dose, tissue Plasma. The arrangement: dose 250 mg, route oral. It is filed as ADME, organism-based.

Data set [1] in a line: as §1. The class given is ADME, organism-based. The following applies: human, in vivo, dietary status Fasting, dosed compound id 34, dosed compound name GRISEOFULVIN, gender male and female, regimen Single dose, tissue Plasma. The arrangement: dose 250 mg, route oral.

In general, Tmax refers to the time at which the peak concentration occurs. By AUC is commonly meant concentration integrated over time. A lower AUC goes with less exposure. One may read the Cmax as the peak of the concentration-time curve.

Turning to `COC1=CC(=O)C[C@@H](C)[C@]12Oc1c(Cl)c(OC)cc(OC)c1C2=O` [GRISEOFULVIN], the Tmax is 3.08 h in the data set with Homo sapiens (dose 250 mg) and 4.04 h in data set [1] (dose 250 mg, route oral). Further, the AUC was found to be 9023.71 ng·h/mL with Homo sapiens and 8620 ng·h/mL in data set [1] (po, 250 mg). The Cmax in the data set with Homo sapiens worked out at 672.61 ng/mL; in data set [1] (po, 250 mg), 601 ng/mL.
